PubChem BioAssay (NCI)
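Values below derive from 48-hour exposures of cells grown in 96-well plates, with endpoints linearly interpolated between the two concentrations bracketing the appropriate inhibition level. GI50 = concentration required for 50% inhibition of growth. At the TGI there is no net growth.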

How the values were obtained:
Experiment in all cases: NCI anticancer screen, dose series, 48 h
HOP-92 NSCLC = test system: HOP-92 NSCLC
IGROV1 ovarian = test system: IGROV1 ovarian
MALME-3M melanoma = test system: MALME-3M melanoma
MCF7 breast = test system: MCF7 breast
MOLT-4 leukemia = test system: MOLT-4 leukemia
OVCAR-8 ovarian = test system: OVCAR-8 ovarian
SF-268 CNS = test system: SF-268 CNS
SNB-75 CNS = test system: SNB-75 CNS
SW-620 colon = test system: SW-620 colon

| SMILES | TGI (HOP-92 NSCLC) | TGI (IGROV1 ovarian) | TGI (MALME-3M melanoma) | TGI (MCF7 breast) | TGI (MOLT-4 leukemia) | TGI (OVCAR-8 ovarian) | TGI (SF-268 CNS) | TGI (SNB-75 CNS) | TGI (SW-620 colon) | GI50 (IGROV1 ovarian) | GI50 (MALME-3M melanoma) | GI50 (MCF7 breast) | GI50 (MOLT-4 leukemia) | GI50 (OVCAR-8 ovarian) | GI50 (SF-268 CNS) | GI50 (SNB-75 CNS) | GI50 (SW-620 colon) |
| --- | --- | --- | --- | --- | --- | --- | --- | --- | --- | --- | --- | --- | --- | --- | --- | --- | --- |
| NC(N)=NS(=O)(=O)c1ccc(NC(=O)c2ccc3nc4ccccc4c(Nc4ccc(S(N)(=O)=O)cc4)c3c2)cc1 | > 100 µM | > 100 µM | > 100 µM | > 100 µM | > 100 µM | > 100 µM | > 100 µM | > 100 µM | > 100 µM | – | – | – | – | – | – | – | – |
| Cn1c2ccccc2c2c3c(c4c5ccccc5n(C)c4c21)C(=O)c1ccccc1C3=O | > 100 µM | > 100 µM | 60 µM | > 100 µM | > 100 µM | > 100 µM | – | > 100 µM | > 100 µM | – | – | – | – | – | – | – | – |
| CCO/C(O)=C(/C(=N)N1CCCC1)C(=O)Nc1cccc(C(F)(F)F)c1 | – | > 100 µM | > 100 µM | > 100 µM | > 100 µM | > 100 µM | > 100 µM | 85.1 µM | > 100 µM | – | – | – | – | – | – | – | – |
| O=C(NCc1ccc(Cl)cc1)c1cc2sccc2nc1C(F)(F)F | > 100 µM | > 100 µM | > 100 µM | > 100 µM | > 100 µM | 72.1 µM | 66.9 µM | – | > 100 µM | – | – | – | – | – | – | – | – |
| COc1cc(C2S/C(=C/c3ccccc3)C(=O)N2c2ccc(Cl)c(Cl)c2)cc(OC)c1OC (stereo not drawn) | > 84.2 µM | > 100 µM | > 100 µM | > 87.7 µM | > 100 µM | > 100 µM | > 100 µM | – | > 100 µM | – | – | – | – | – | – | – | – |
| C/C(O)=C/c1nc2ccc([N+](=O)[O-])cc2nc1/C=C(/C)O | 84.3 µM | > 100 µM | 94.3 µM | – | 72.2 µM | > 100 µM | > 100 µM | > 100 µM | > 100 µM | – | – | – | – | – | – | – | – |
| Cc1cc(=O)oc2cc(O)ccc12 | > 100 µM | > 100 µM | > 100 µM | > 100 µM | > 100 µM | > 100 µM | > 100 µM | > 100 µM | > 100 µM | – | – | – | – | – | – | – | – |
| NNc1nncn1N | > 100 µM | > 100 µM | > 85.4 µM | > 100 µM | > 100 µM | > 100 µM | > 100 µM | > 100 µM | > 100 µM | – | – | – | – | – | – | – | – |
| Clc1ccc(N=c2oc3ccccc3cc2-c2nc3ccccc3[nH]2)c(Cl)c1 | > 100 µM | > 100 µM | > 100 µM | – | > 100 µM | > 100 µM | 89.1 µM | – | > 100 µM | – | – | – | – | – | – | – | – |
| CSc1c(C#N)c2n(c3ccccc13)c1ccccc1[n+]2C | > 100 µM | > 100 µM | 34.6 µM | > 100 µM | 38.6 µM | 59.3 µM | > 100 µM | > 100 µM | > 100 µM | – | – | – | – | – | – | – | – |
| NNC(=S)N1CCN(C(=S)NN)CC1 | > 100 µM | > 100 µM | > 100 µM | – | > 100 µM | – | > 100 µM | > 100 µM | > 100 µM | – | – | – | – | – | – | – | – |
| Cc1ccc(S(=O)(=O)c2c(O)c3ccccc3n(C)c2=O)cc1 | > 100 µM | > 100 µM | > 100 µM | > 100 µM | – | > 100 µM | > 100 µM | > 100 µM | > 100 µM | – | – | – | – | – | – | – | – |
| CC(=O)c1cc2ccccc2n(O)c1=N | > 100 µM | > 100 µM | > 100 µM | > 100 µM | > 100 µM | > 100 µM | > 100 µM | – | – | – | – | – | – | – | – | – | – |
| CN(Cc1cnc2nc(N)nc(N)c2n1)c1ccc(C(=O)NC(CCC(=O)NC(P(=O)(O)O)P(=O)(O)O)C(=O)O)cc1 (stereo not drawn) | > 100 µM | > 100 µM | > 100 µM | > 100 µM | > 100 µM | > 100 µM | > 100 µM | > 100 µM | 28.3 µM | – | – | – | – | – | – | – | – |
| COc1cc(S(=O)(=O)Nc2ccc(C3=NNC(c4ccccc4)C3)cc2)ccc1F (stereo not drawn) | – | > 100 µM | 49.8 µM | > 100 µM | > 100 µM | > 100 µM | > 100 µM | > 100 µM | > 100 µM | 93.8 µM | 13.2 µM | 22.2 µM | 48.3 µM | 68.1 µM | 65.1 µM | 23.9 µM | 44.4 µM |
| Cc1cc(C)n(CN(Cn2nc(C)cc2C)C2CCCCC2)n1 | 87.5 µM | 50.1 µM | 51.9 µM | > 100 µM | – | 58.4 µM | 91.3 µM | 76.8 µM | 92.7 µM | – | – | – | – | – | – | – | – |
| CN(C)CCNc1ncnc2nc(-c3ccc4ccccc4c3)[nH]c12 | – | > 100 µM | > 100 µM | > 100 µM | > 100 µM | > 100 µM | > 100 µM | – | > 100 µM | – | – | – | – | – | – | – | – |
| O=C1C(Br)=C(c2ccccc2)S(=O)c2ccccc21 (stereo not drawn) | 36.8 µM | 23.1 µM | 22.4 µM | 10.4 µM | – | 31.3 µM | 36.5 µM | 31.1 µM | 38.4 µM | – | – | – | – | – | – | – | – |
